Columns and labels:
Assay type in all cases: in vivo, mouse
IGFBP-2−/− mice [1] = test: Adipocyte area measurement in peri-gonadal adipose tissue; details: after 12 weeks
Method: Adipocyte area measurement. Samples of peri-gonadal adipose tissue were fixed in 10% formalin and embedded in paraffin. Multiple sections were obtained from each sample and stained with hematoxylin and eosin. Digital images of each section were acquired using an Olympus BX61 microscope and cell areas were traced manually for at least 200 cells per section by an investigator blinded to the sample identity, using Image J software (1ASS). Four sections from each adipose depot were analyzed to derive the mean cell area per mouse 6 mice per group).

IGFBP-2−/− mice [2] = test: Body composition (fat and lean mass) by EchoMRI at weeks 0 and 12
Method: Body fat and lean muscle mass was measured at weeks 0 and 12 of treatment by magnetic resonance imaging analysis (EchoMRI-100, Echo Medical Systems, Houston, Tex.), a technique that measures fat mass and lean mass in unanesthetized animals (Kelly S A, et. al., 2010). After completion of 12 weeks of treatment, the mice were sacrificed. Blood was collected by cardiac puncture and allowed to sit for 4 hours before centrifuging at 3500 rpm×15 min. The serum was aspirated and stored at −20° C. until analysis. Abdominal inguinal and visceral fat pads were carefully dissected from each animal according to defined anatomical landmarks. All subcutaneous fat between the lower part of the rib cage and the upper thigh was considered abdominal subcutaneous inguinal fat, whereas all fat found along the mesentery starting at the lesser curvature of the stomach and ending at the sigmoid colon was considered visceral fat. Fat depots were blotted dry prior to weighing. The right inguinal fat pad was dissected separately and the triglyceride content of this tissue was determined by a colorimetric analysis (Pointe Scientific, Canton, Mich.), as previously described (Dann H, Kimura S 1992). Serum adiponectin and leptin were measured by ELISA following manufacturer's instructions (Millipore, Billerica, Mass.).
Body composition and serum adipokine measurement. Body fat and lean mass were measured at weeks 0 and 12 of treatment by magnetic resonance imaging analysis (EchoMRI-100, Echo Medical Systems, Houston, Tex.), using unanesthetized animals. After 12 weeks of treatment, the mice were sacrificed and blood was collected by cardiac puncture and centrifuged at 3500 rpm×15 min. The serum was stored at −20° C. Abdominal inguinal and visceral fat pads were dissected from each animal according to defined anatomical landmarks. Subcutaneous fat between the rib cage and the upper thigh was termed subcutaneous inguinal fat, whereas all fat from the lesser curvature of the stomach to the sigmoid colon was termed visceral fat. Fat depots were blotted dry prior to weighing. The right inguinal fat pad was dissected separately and the triglyceride content of this tissue was determined by a calorimetric analysis (Pointe Scientific, Canton, Mich. Serum adiponectin and leptin were measured by ELISA following manufacturer's instructions (Millipore, Billerica, Mass.).

IGFBP-2−/− mice [3] = test: Body weight gain and food intake, 12 weeks of peptide treatment; details: pegylated peptide 50 μg IP 3 times/week; for body weight gain (in words): HBD peptides after 8 weeks vs control peptide, control peptide over 12 weeks vs wild type
Method: Generation of the B6.129-Igfbp2^tmlJep, referred to as Igfbp2^−/− mice, has been described previously (DeMambro et al., 2008; Danno et al., 1992). The mice were backcrossed onto C57BL/6J background for at least 10 generations. Mating pairs were provided from Maine Medical Center Research Institute (Scarborough, Me.). Igfbp2^+/+ mice were C57BL/6J controls. All in vivo and ex vivo experimental studies were performed using male mice. The animal study protocol was reviewed and approved by the Institutional Animal Care and Use Committee of University of North Carolina at Chapel Hill. Mice were assigned to one of four treatment groups. 1) Peg HBD1 peptide: Igfbp2^−/− mice were administered 50 μg of the pegylated HBD1 peptide in 0.1 mL PBS (n=9); 2) Peg HBD2 peptide: Igfbp2^−/− mice were administered 50 μg of the pegylated HBD2 peptide in 0.1 mL PBS (n=10); 3) control peptide: Igfbp2^−/− mice were given 50 μg of the HBD1 control peptide in 0.1 mL PBS (n=18); 4) WT: Igfbp2^+/+ mice were given 0.1 mL of PBS (n=9). All injections were administered IP 3 times weekly from 10-22 weeks of age. All mice were provided with free access to 2018 Teklad global rodent diet (Harlan, Dublin, Va.), containing 18.6% protein, 6.2% fat and 3.5% crude fiber. Food consumption and the weights of the mice were determined weekly.
To investigate the effect of IGFBP-2 HBDs on weight gain and fat mass in vivo, the peptides containing HBD sequences were administered to IGFBP-2−/− mice. […] To extend the half life of the peptides and increase their resistance to proteolysis in vivo, all three peptides were pegylated. It has been shown that 50 μg of HBD1 peptide administered via intraperitoneal (IP) injection 5 times per week for 3 weeks was effective in promoting bone growth in IGFBP-2^−/− male mice (17). […] In the second phase the effects of the HBD2 and control peptides were determined. […] To exclude the possibility that differences in weight gain were caused by different food intake, food consumption was measured weekly.
Mice. […] Food consumption and the weights of the mice were determined weekly. […]

[4] = weeks 0 to 12, pegylated peptide 50 μg IP 3 times/week
[5] = weeks 0 to 12, pegylated peptide 50 μg IP 3 times/week, mean±SE

Row | Sequence | adipocyte size (IGFBP-2−/− mice [1]) [pixels/cell] | reduction in body fat mass gain (fat as percentage of body weight) compared to control peptide (IGFBP-2−/− mice [2]; 12 weeks, pegylated peptide 50 μg IP 3 times/week) [%] | lean mass change expressed as percentage of body weight (relative reduction) (IGFBP-2−/− mice [2]; [4]) [%] | Fat mass increase (IGFBP-2−/− mice [2]; [5]) [g] | Lean mass increase (IGFBP-2−/− mice [2]; [5]) [g] | body weight gain (in words) (IGFBP-2−/− mice [3]) | weight gain compared to mice that received HBD1 peptide (IGFBP-2−/− mice [3]; after 10 weeks) | inhibition of fat mass acquisition (IGFBP-2−/− mice [2]; 12 weeks) [%]
1 | KHGLYNLKQCKMSLNGQR [HBD2 peptide] | 11967±716 | 48±9 | 2.1±0.8 | 0.58 ± 0.12 | 3.10 ± 0.57 | gained significantly less weight | significantly less | 
2 | KHLSLEEPKKLRP [HBD1 peptide] | 12406±748 |  | 4.1±1.1 |  |  | gained significantly less weight |  | 31
